For this assay, the system named is CD2F1 mice, L1210 leukemia ip, survival T/C. The assay can be described thus: NCI In Vivo Anticancer Drug Screen. Data for tumor model L1210 Leukemia (intraperitoneal) in CD2F1 (CDF1) mice. The note with it: higher = longer survival. The gist of the method: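 Ratio T/C, where T is the treated-group value and C the vehicle-dosed control value, from mice implanted with a transplantable tumor.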

Setting [1] is: endpoint: mean survival time, dose: 100.0 mg/kg/injection, schedule: Q01DX009 (ip), vehicle: saline with Tween-80.
[2] abbreviates: endpoint: mean survival time, dose: 100.0 mg/kg/injection, schedule: Q04DX003 (ip), vehicle: saline with Tween-80.
Where [3] appears, read: endpoint: mean survival time, dose: 200.0 mg/kg/injection, schedule: Q01DX009 (ip), vehicle: saline with Tween-80.
Where [4] appears, read: endpoint: mean survival time, dose: 200.0 mg/kg/injection, schedule: Q04DX003 (ip), vehicle: saline with Tween-80.
Setting [5] is: endpoint: mean survival time, dose: 400.0 mg/kg/injection, schedule: Q04DX003 (ip), vehicle: saline with Tween-80.
Where [6] appears, read: endpoint: mean survival time, dose: 25.0 mg/kg/injection, schedule: Q01DX009 (ip), vehicle: saline with Tween-80.
[7] abbreviates: endpoint: mean survival time, dose: 50.0 mg/kg/injection, schedule: Q01DX009 (ip), vehicle: saline with Tween-80.
Where [8] appears, read: endpoint: mean survival time, dose: 100.0 mg/kg/injection, schedule: Q04DX003 (ip), vehicle: saline.
Setting [9] is: endpoint: mean survival time, dose: 100.0 mg/kg/injection, schedule: Q01DX001 (ip), vehicle: saline with Tween-80.
[10] abbreviates: endpoint: mean survival time, dose: 200.0 mg/kg/injection, schedule: Q01DX001 (ip), vehicle: saline with Tween-80.
The mark [11] stands for this setting: endpoint: mean survival time, dose: 400.0 mg/kg/injection, schedule: Q01DX001 (ip), vehicle: saline with Tween-80.
Where [12] appears, read: endpoint: mean survival time, dose: 100.0 mg/kg/injection, schedule: Q01DX009 (ip), vehicle: saline.
The mark [13] stands for this setting: endpoint: mean survival time, dose: 200.0 mg/kg/injection, schedule: Q01DX009 (ip), vehicle: saline.

“And” between values parts separate entries of the source, which are not always exact repeats. Equal values may be shown once. Toxic doses and inconclusive results are not listed.

Take `COC(=O)C1=C(NC(=O)Nc2ccc(OC)cc2)OC(C)(C)C1c1ccc(Cl)cc1` (centres undefined): the T/C runs as follows: under setting [1], 93 % of control; under setting [2], 92 % of control; under setting [3], 93 % of control; under setting [4], 87 % of control; (endpoint: mean survival time, dose: 400.0 mg/kg/injection, schedule: Q01DX009 (ip), vehicle: saline with Tween-80) 94 % of control; under setting [5], 92 % of control.
In the case of `Nc1cc2c3c(cccc3c1)C(=O)N(CCN1CCCC1)C2=O`, the T/C (endpoint: mean survival time, dose: 3.12 mg/kg/injection, schedule: Q01DX009 (ip), vehicle: saline with Tween-80) was 96 % of control and 102 % of control; the T/C (endpoint: mean survival time, dose: 6.25 mg/kg/injection, schedule: Q01DX009 (ip), vehicle: saline with Tween-80) was 101 % of control and 107 % of control; the T/C (endpoint: mean survival time, dose: 12.5 mg/kg/injection, schedule: Q01DX009 (ip), vehicle: saline with Tween-80) was 117 % of control and 110 % of control; the T/C under setting [6] is 113 % of control and 119 % of control and 111 % of control; the T/C under setting [7] was 175 % of control; the T/C under setting [1] is 86 % of control. Moreover, the T/C under setting [3] was 91 % of control.
In the case of `O=C(O)C(C(=O)O)=C(C(=O)c1ccccc1)c1ccccc1`, the T/C was 95 % of control (endpoint: mean survival time, dose: 100.0 mg/kg/injection, schedule: Q01DX009 (ip), vehicle: other); 100 % of control (endpoint: mean survival time, dose: 200.0 mg/kg/injection, schedule: Q01DX009 (ip), vehicle: other); 95 % of control (endpoint: mean survival time, dose: 400.0 mg/kg/injection, schedule: Q01DX009 (ip), vehicle: other).
For the compound `Cc1cc(C)c(Sc2c3ccccc3cc3ccccc23)c(C)c1`, the T/C (endpoint: mean survival time, dose: 100.0 mg/kg/injection, schedule: Q01DX001 (ip), vehicle: saline) was 91 % of control; the T/C under setting [8] was 93 % of control; the T/C (endpoint: mean survival time, dose: 200.0 mg/kg/injection, schedule: Q01DX001 (ip), vehicle: saline) was 101 % of control; the T/C (endpoint: mean survival time, dose: 200.0 mg/kg/injection, schedule: Q04DX003 (ip), vehicle: saline) is 87 % of control; the T/C (endpoint: mean survival time, dose: 400.0 mg/kg/injection, schedule: Q01DX001 (ip), vehicle: saline) was 100 % of control; the T/C (endpoint: mean survival time, dose: 400.0 mg/kg/injection, schedule: Q04DX003 (ip), vehicle: saline) was 95 % of control.
As for `CCCCCCCCCCCCCCCCCCCOc1ccc(OCCCCCCCCCCCCCCCC)cc1`, the T/C by setting is: under setting [9], 100 % of control; under setting [10], 96 % of control; under setting [11], 88 % of control.
`COC(=O)CCS/C=C/C(=O)O`: the T/C is, setting by setting: under setting [9], 97 % of control; under setting [10], 100 % of control; under setting [11], 97 % of control.
Regarding `NC(Cc1cccc(NP(=S)(N2CC2)N2CC2)c1)C(=O)O` (centres undefined), the T/C is 119 % of control under setting [12], 113 % of control under setting [8] and 100 % of control under setting [13].
For the compound `Nc1ccc(N=Nc2ccc(N(CCCl)CCCl)cc2)cc1`, the T/C is 96 % of control (endpoint: mean survival time, dose: 33.0 mg/kg/injection, schedule: Q01DX001 (ip), vehicle: Klucel (hydroxypropylcellulose) (HPC)); 91 % of control (endpoint: mean survival time, dose: 66.0 mg/kg/injection, schedule: Q01DX001 (ip), vehicle: Klucel (hydroxypropylcellulose) (HPC)); 91 % of control (endpoint: mean survival time, dose: 132.0 mg/kg/injection, schedule: Q01DX001 (ip), vehicle: Klucel (hydroxypropylcellulose) (HPC)).
With `CC1CC(C)(C)NC(c2ccccc2)O1` (centres undefined), the T/C is, setting by setting: under setting [2], 94 % of control; under setting [4], 94 % of control; under setting [5], 102 % of control.
In the case of `COc1ccc(C(=O)NN)cc1`, the T/C under setting [6] is 115 % of control, the T/C under setting [7] is 110 % of control, the T/C under setting [1] is 109 % of control and the T/C under setting [2] is 101 % of control.
As to `CCOc1ccccc1C=C(C#N)C#N`, the T/C (endpoint: mean survival time, dose: 25.0 mg/kg/injection, schedule: Q04DX002 (ip), vehicle: saline with Tween-80) was 96 % of control; the T/C (endpoint: mean survival time, dose: 50.0 mg/kg/injection, schedule: Q04DX002 (ip), vehicle: saline with Tween-80) is 96 % of control; the T/C (endpoint: mean survival time, dose: 100.0 mg/kg/injection, schedule: Q04DX002 (ip), vehicle: saline with Tween-80) was 93 % of control.
In the case of `C=CN1CCCC1=O`, the T/C is 98 % of control under setting [2]; 101 % of control under setting [4]; 95 % of control under setting [5]; 101 % of control (endpoint: mean survival time, dose: 1400.0 mg/kg/injection, schedule: Q01DX001 (ip), vehicle: saline); 110 % of control (endpoint: mean survival time, dose: 1600.0 mg/kg/injection, schedule: Q01DX001 (ip), vehicle: saline); 117 % of control (endpoint: mean survival time, dose: 1800.0 mg/kg/injection, schedule: Q01DX001 (ip), vehicle: saline). For the same compound, the T/C (endpoint: mean survival time, dose: 2000.0 mg/kg/injection, schedule: Q01DX001 (ip), vehicle: saline) was 114 % of control; the T/C (endpoint: median survival time, dose: 1.9 grams/kg/injection, schedule: Q01DX001 (iv), vehicle: saline) was 100 % of control; the T/C (endpoint: median survival time, dose: 1.9 grams/kg/injection, schedule: Q01DX005 (iv), vehicle: saline) is 112 % of control; the T/C (endpoint: median survival time, dose: 1.9 grams/kg/injection, schedule: Q03HX008 (ip), vehicle: saline) was 112 % of control; the T/C (endpoint: median survival time, dose: 1.9 grams/kg/injection, schedule: Q03HX016 (ip), vehicle: saline) is 106 % of control; the T/C (endpoint: median survival time, dose: 1.9 grams/kg/injection, schedule: Q03HX024 (ip), vehicle: saline) is 112 % of control. The T/C was 112 % of control (endpoint: median survival time, dose: 1.9 grams/kg/injection, schedule: Q04DX003 (iv), vehicle: saline); 112 % of control (endpoint: median survival time, dose: 3.8 grams/kg/injection, schedule: Q01DX001 (ip), vehicle: saline); 100 % of control (endpoint: median survival time, dose: 3.8 grams/kg/injection, schedule: Q01DX001 (iv), vehicle: saline); 100 % of control (endpoint: median survival time, dose: 3.8 grams/kg/injection, schedule: Q01DX005 (ip), vehicle: saline); 100 % of control (endpoint: median survival time, dose: 3.8 grams/kg/injection, schedule: Q01DX005 (iv), vehicle: saline); 100 % of control (endpoint: median survival time, dose: 3.8 grams/kg/injection, schedule: Q01DX009 (ip), vehicle: saline). Further, the T/C is, setting by setting: (endpoint: median survival time, dose: 3.8 grams/kg/injection, schedule: Q03HX008 (ip), vehicle: saline) 112 % of control; (endpoint: median survival time, dose: 3.8 grams/kg/injection, schedule: Q03HX016 (ip), vehicle: saline) 112 % of control; (endpoint: median survival time, dose: 3.8 grams/kg/injection, schedule: Q03HX024 (ip), vehicle: saline) 112 % of control; (endpoint: median survival time, dose: 3.8 grams/kg/injection, schedule: Q04DX003 (ip), vehicle: saline) 106 % of control; (endpoint: median survival time, dose: 3.8 grams/kg/injection, schedule: Q04DX003 (iv), vehicle: saline) 112 % of control; (endpoint: median survival time, dose: 3.8 grams/kg/injection, schedule: Q08DX002 (ip), vehicle: saline) 106 % of control. Besides, the T/C (endpoint: median survival time, dose: 7.5 grams/kg/injection, schedule: Q01DX001 (ip), vehicle: saline) was 100 % of control; the T/C (endpoint: median survival time, dose: 7.5 grams/kg/injection, schedule: Q01DX001 (iv), vehicle: saline) was 100 % of control; the T/C (endpoint: median survival time, dose: 7.5 grams/kg/injection, schedule: Q01DX005 (ip), vehicle: saline) is 112 % of control; the T/C (endpoint: median survival time, dose: 7.5 grams/kg/injection, schedule: Q01DX005 (iv), vehicle: saline) is 106 % of control; the T/C (endpoint: median survival time, dose: 7.5 grams/kg/injection, schedule: Q01DX009 (ip), vehicle: saline) is 100 % of control; the T/C (endpoint: median survival time, dose: 7.5 grams/kg/injection, schedule: Q03HX008 (ip), vehicle: saline) is 112 % of control. For the same compound, the T/C by setting is: (endpoint: median survival time, dose: 7.5 grams/kg/injection, schedule: Q04DX003 (ip), vehicle: saline) 100 % of control; (endpoint: median survival time, dose: 7.5 grams/kg/injection, schedule: Q04DX003 (iv), vehicle: saline) 106 % of control; (endpoint: median survival time, dose: 7.5 grams/kg/injection, schedule: Q08DX002 (ip), vehicle: saline) 112 % of control; (endpoint: median survival time, dose: 15.0 grams/kg/injection, schedule: Q01DX001 (ip), vehicle: saline) 112 % of control; (endpoint: median survival time, dose: 15.0 grams/kg/injection, schedule: Q01DX009 (ip), vehicle: saline) 118 % of control; (endpoint: median survival time, dose: 15.0 grams/kg/injection, schedule: Q04DX003 (ip), vehicle: saline) 112 % of control. Further, where the note is “endpoint: median survival time, dose: 15.0 grams/kg/injection, schedule: Q08DX002 (ip), vehicle: saline”, the T/C was 106 % of control.
In the case of `O=C1/C(=C/c2cccc([N+](=O)[O-])c2)CCc2ccccc21`, the T/C was 94 % of control under setting [12]; 97 % of control under setting [13]; 91 % of control (endpoint: mean survival time, dose: 400.0 mg/kg/injection, schedule: Q01DX009 (ip), vehicle: saline).

Source of the values: PubChem BioAssay AID256 (DTP/NCI, 2004).
